Laboratory results from the supplement of paper PMC3974653.
Where a name gives a salt, the structure may show the parent alone.

System: MTT (mouse pheochromocytoma)
Experiment: IC50 of cell viability (ATP content)
Settings: (24 or 48 h)
Procedure, shortened: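 Each well of a white 1536-well plate received 5 µl of MTT mouse pheochromocytoma cells at 200,000 cells/ml in DMEM containing 5% FBS and 1% horse serum. After overnight culture at 37°C, 5% CO2, cells were exposed for 24 or 48 hrs to 23 nl of library compound in DMSO, pinned at 8 final concentrations from 0.5 nM to 46 µM. CellTiter-Glo luminescence was read after 15 minutes, and IC50 was obtained from a four-parameter logistic fit of signals normalised to positive-control and DMSO wells.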

SMILES | IC50 of cell viability [µM]
COC(=O)C1=C(C)NC(C)=C(C(=O)OCC(C)C)C1c1ccccc1[N+](=O)[O-] (stereo not given) [Nisoldipine] | > 46
CC(=O)Nc1ncc([N+](=O)[O-])s1 [Nithiamide] | > 46
Cc1nc([N+](=O)[O-])cn1-c1ccc([N+](=O)[O-])cc1 [Nitrefazole] | > 46
O=[N+]([O-])c1ccccc1 [Nitrobenzene] | > 46
O=C1CN(/N=C/c2ccc([N+](=O)[O-])o2)C(=O)N1 [Nitrofurantoin] | > 46
NC(=O)N/N=C/c1ccc([N+](=O)[O-])o1 [Nitrofurazone] | > 46
O=[N+]([O-])c1ccc(Oc2ccc(N=C=S)cc2)cc1 [Nitroscanate] | > 46
CC(C)OC(=O)c1cc(C(=O)OC(C)C)cc([N+](=O)[O-])c1 [Nitrothal-isopropyl] | > 46
CN/C(=C\[N+](=O)[O-])NCCSCc1csc(CN(C)C)n1 [Nizatidine] | > 46
CCN(CC)Cc1nccn1-c1ccc([N+](=O)[O-])cc1C(=O)c1ccccc1Cl [Nizofenone] | > 46
CCCCCCCCC(=O)NCc1ccc(O)c(OC)c1 [Nonanamide, N-[(4-hydroxy-3-methoxyphenyl)methyl]-] | > 46
O=C(O)CCCCCCCC(=O)O [Nonanedioic acid] | > 46
C[C@]12CC[C@H]3[C@@H](CCC4=CC(=O)CC[C@@H]43)[C@@H]1CC[C@@H]2O [Norandrostenolone] | > 46
NC[C@H](O)c1ccc(O)c(O)c1 [Norepinephrine bitartrate] | > 46
C[C@@]12CC[C@H]\3[C@@H](CC\C4=C3CCC(=O)C4)[C@H]1CC[C@]2(O)C#C [Norethynodrel] | > 46
CCN1\C=C(\C(O)=O)C(=O)C2=C1C=C(N3CCNCC3)C(=C2)F [Norfloxacin] | > 46
C#C[C@]1(OC(=O)CCCCCC)CC[C@H]2C3CCC4=CC(=O)CC[C@@H]4[C@H]3CC[C@@]21C (stereo not given in full) [Noristerat] | > 46
Oc1ccccc1/C=N/Cc1ccccc1 [Norletimol] | > 46
O[C@H]1\C=C/C2[C@H]3CC4=CC=C(O)C5=C4[C@@]2(CCN3)[C@H]1O5 (stereo not given in full) [Normorphine] | > 46
COc1ccc2c(c1OC)C(=O)O[C@H]2[C@H]1c2c(cc3c(c2OC)OCO3)CCN1C [Noscapine] | > 46
[Na+].CO[C@H]1[C@@H](OC(N)=O)[C@@H](O)[C@H](OC2=C(C)C3=C(C=C2)\C(=C(\NC(=O)C4=CC(=C([O-])C=C4)CC=C(C)C)C(=O)O3)O)OC1(C)C [Novobiocin sodium salt] | > 46
C[C@H]1[C@H](O)[C@@H](C)/C=C/C=C/CC/C=C/C=C/C=C/C=C/[C@H](O[C@@H]2O[C@H](C)[C@@H](O)[C@H](N)[C@@H]2O)C[C@@H]2O[C@](O)(C[C@@H](O)[C@H](O)CC[C@@H](O)C[C@@H](O)C[C@@H](O)CC(=O)O[C@H]1C)C[C@H](O)[C@H]2C(=O)O [Nystatin] | > 46

SMILES | IC50 of cell viability [µM]
CCCCCCCCOc1ccc(C(=O)c2ccccc2)c(O)c1 [OCTABENZONUM] | > 46
CCOc1cc(-c2nccc3cc(OC)c(OC)cc23)cc(OCC)c1OCC [OCTAVERINUM] | > 46
CC(C)CCCC(C)N (stereo not given) [OCTODRINUM] | > 46
CC(C)(C)CC(C)(C)c1ccc(O)c(-n2nc3ccccc3n2)c1 [OCTRIZOLUM] | > 46
CCCCCCCCCCC(CO)CCCCCCCC (stereo not given) [OCTYLDODECANOL] | > 46
CCCCCCCCOc1ccccc1C(=O)Nc1ccc(C(=O)OCC[N+](C)(CC)CC)cc1 [OCTYLONIUM BROMIDE] | > 46
CCCC1=NC(=C([N]1CC2=CC=C(C=C2)C3=CC=CC=C3C4=N[NH]N=N4)C(=O)OCC/5=C(C)/OC(=O)O5)C(C)(C)O [OLMESARTAN MEDOXOMIL] | > 46
CN(C)CC/C=C1\c2ccccc2COc2ccc(CC(=O)O)cc21 [OLOPATADINE HYDROCHLORIDE] | > 46
O=C([O-])c1cc(/N=N/c2ccc(O)c(C(=O)[O-])c2)ccc1O [OLSALAZINE SODIUM] | > 46
CCN(CC)c1ccc(/N=N/c2ccc([S+](=O)([O-])N(C)C)cc2)c([S+](=O)([O-])NCC[n+]2ccccc2)c1 [ORANGE OIL] | > 46
CCCCCCCCCCCC(CC1OC(=O)C1CCCCCC)OC(=O)C(CC(C)C)NC=O (stereo not given) [ORLISTAT] | > 46
COc1ccc2c(c1)OC(C)(C)C(c1ccccc1)C2c1ccc(OCCN2CCCC2)cc1 (stereo not given) [ORMELOXIFENUM] | > 46
COc1cc(C)c(Cc2cnc(N)nc2N)cc1OC [ORMETOPRIM] | > 46
Cc1ccccc1C(OCCN(C)C)c1ccccc1.O=C(O)CC(O)(CC(=O)O)C(=O)O (stereo not given) [ORPHENADRINE CITRATE] | > 46
CCOC(=O)C/1=C/C(OC(CC)CC)C(NC(C)=O)C(N)C1.OC(C(O)C(O)=O)C(O)=O (stereo not given) [OSELTAMIVIR TARTRATE] | > 46
O=C([O-])c1nc(O)nc(O)n1 [OTERACIL POTASSIUM] | > 46
CC1OC(O[C@H]2C[C@@H](O)[C@]3(CO)[C@H]4[C@H](O)C[C@]5(C)[C@@H](C6=CC(=O)OC6)CC[C@]5(O)[C@@H]4CC[C@]3(O)C2)C(O)C(O)C1O (stereo not given in full) [OUABAIN] | > 46
CC12CCC3C4CCC(=O)C(O)=C4CCC3C1CCC2OC(=O)CCC1CCCC1 (stereo not given) [OXABOLONE CIPIONATE] | > 46
CC(=O)N1CC(O)CC1C(=O)O (stereo not given) [OXACEPROLUM] | > 46
O=C1[O][Pt]2([NH]C3CCCCC3[NH]2)[O]C1=O (stereo not given) [OXALIPLATIN] | > 46
NC1CCCCC1N.O=C([O-])C(=O)[O-].[Pt+2] (stereo not given) [OXALIPLATIN] | > 46
CC(CC(=O)O)(CC(=O)O)C(=O)O.CCN(CC)CCOCCOC(=O)C(CC)(CC)c1ccccc1 [OXELADIN TANNATE] | > 46

SMILES | IC50 of cell viability [µM]
NC(C(=O)O)c1ccc(O)cc1 (stereo not given) [OXFENICINUM] | > 46
Clc1ccc(CO/N=C(\Cn2ccnc2)c2ccc(Cl)cc2Cl)c(Cl)c1.O=[N+]([O-])O [OXICONAZOLE NITRATE] | > 46
Cl.NCCc1cc(O)c(O)cc1O [OXIDOPAMINE HYDROCHLORIDE] | > 46
CCN1\C=C(\C(O)=O)C(=O)C2=C1C=C3OCOC3=C2 [OXOLINIC ACID] | > 46
CC(CN(C)C)CN1c2ccccc2[S+](=O)([O-])c2ccccc21 (stereo not given) [OXOMEMAZINE HCl] | > 46
Cn1c(=O)c2[nH]cnc2n(C)c1=O [OXTRIPHYLLINE] | > 46
CC1=CC(=C(O)C(=C1C\C2=N\CCN2)C)C(C)(C)C [OXYMETAZOLINE] | > 46
Cl.CN\1CCC\N=C1COC(=O)C(O)(C2CCCCC2)C3=CC=CC=C3 (stereo not given) [OXYPHENCYCLIMINE HYDROCHLORIDE] | > 46
CC[N+](C)(CC)CCOC(=O)C(O)(c1ccccc1)C1CCCCC1 (stereo not given) [OXYPHENONIUM BROMIDE] | > 46
CN(C)C1C(=O)C(C(N)=O)C(=O)C2(O)C(=O)C3C(=O)c4c(O)cccc4C(C)(O)C3C(O)C12 (stereo not given) [OXYTETRACYCLINE] | > 46
CCC(C)C1NC(=O)C(Cc2ccc(O)cc2)NC(=O)C(N)CSSCC(C(=O)N2CCCC2C(=O)NC(CC(C)C)C(=O)NCC(N)=O)NC(=O)C(CC(N)=O)NC(=O)C(CCC(N)=O)NC1=O (stereo not given) [OXYTOCIN] | > 46
CC1CC(=O)N/N=C1/C2=CC=C(NCC(C)(C)NCC(O)COC3=C(C=CC(=C3)Cl)C#N)C=C2 (stereo not given) [Oberadilol] | > 46
CCCCC(CC)COC(=O)/C=C/c1ccc(OC)cc1 (stereo not given) [Octinoxate] | > 46
CCCCC(CC)COC(=O)c1ccccc1O (stereo not given) [Octisalate] | > 46
CCCCC(CC)COC(=O)C(C#N)=C(c1ccccc1)c1ccccc1 (stereo not given) [Octocrylene] | > 46
C[C@@H](O)[C@@H]1NC(=O)[C@H](CCCCN)NC(=O)[C@@H](Cc2c[nH]c3ccccc23)NC(=O)[C@H](Cc2ccccc2)NC(=O)[C@@H](NC(=O)[C@H](N)Cc2ccccc2)CSSC[C@@H](C(=O)N[C@H](CO)[C@@H](C)O)NC1=O [Octreotide] | > 46
C[C@@H]1COC2=C3N1\C=C(\C(O)=O)C(=O)C3=CC(=C2N4CCN(C)CC4)F [Ofloxacin] | > 46
CO[C@H]1C[C@H](O[C@@H]2[C@H](C)[C@H](O[C@@H]3O[C@@H](C)C[C@@H](N(C)C)[C@H]3O)[C@H](C)C[C@]3(CO3)C(=O)[C@H](C)[C@H](O)[C@H](C)[C@H](C)OC(=O)[C@@H]2C)O[C@@H](C)[C@H]1O [Oleandomycin phosphate] | > 46
CCCCCCCC/C=C\CCCCCCCC(=O)O [Oleic acid] | > 46
CCCCCCCC/C=C\CCCCCCCC(=O)NCc1ccc(O)c(OC)c1 [Olvanil] | > 46
COc1ccc2[nH]c([S+]([O-])Cc3ncc(C)c(OC)c3C)nc2c1 (stereo not given) [Omeprazole] | > 46
